This passage reports melting point results from patent US6509328B1, “Glutamate receptor antagonists” (Hoffmann-La Roche Inc., priority 1999, dated 2003).

`N#Cc1cccc(C2=Nc3ccc(C4CC4)cc3NC(=O)C2)c1` [Example 111, 3-(7-Cyclopropyl-4-oxo-4,5-dihydro-3H-benzo [b][1,4]diazepin-2-yl)-benzonitrile]: the melting point (as a rule, the temperature of the solid-liquid transition) was in the range of 204 to 209 °C.

`N#Cc1cc(C2=Nc3ccc(C4CC4)cc3NC(=O)C2)ccn1` [Example 112, 4-(7-Cyclopropyl-4-oxo-4,5-dihydro-3H-benzo[b][1,4]diazepin-2-yl)-pyridine-2-carbonitrile] yielded a melting point of 227 to 230 °C.

The compound `O=C1CC(c2cccc(-n3ccnn3)c2)=Nc2ccc(C#Cc3ccc(F)cc3)cc2N1` [Example 115, 8-(4-Fluoro-phenylethynyl)-4-(3-[1,2,3]triazol-1-yl-phenyl)-1,3-dihydro-benzo[b][1,4]diazepin-2-one] yielded a melting point of 246 to 248 °C.

In turn, `N#Cc1cccc(C2=Nc3ccc(-c4cc(F)ccc4F)cc3NC(=O)C2)c1` [Example 125, 3-[7-(2,5-Difluoro-phenyl)-4-oxo-4,5-dihydro-3H-benzo [b][1,4]diazepin-2-yl]-benzonitrile] yielded a melting point of 247 °C.

As for `Cc1cc(-c2cccc(C3=Nc4ccc(-c5ccccc5F)cc4NC(=O)C3)c2)on1` [Example 127, 8-(2-Fluoro-phenyl)-4-[3-(3-methyl-isoxazol-5-yl)-phenyl]-1,3-dihydro-benzo-[b][1,4]diazepin-2-one], the melting point lay within 222 to 224 °C.

With `N#Cc1cccc(C2=Nc3ccc(C#Cc4ccc(F)cc4F)cc3NC(=O)C2)c1` [Example 130, 3-[7-(2,4-Difluoro-phenylethynyl)-4-oxo-4,5-dihydro-3H-benzo [b][1,4]diazepin-2-yl]-benzonitrile], the melting point is 240 to 246 °C.

Regarding `N#Cc1cccc(C2=Nc3ccc(C#Cc4ccccc4F)cc3NC(=O)C2)c1` [Example 131, 3-[7-(2-Fluoro-phenylethynyl)-4-oxo-4,5-dihydro-3H-benzo[b][1,4]diazepin-2-yl]-benzonitrile], the melting point lay in the range of 213 to 214 °C.

`C#Cc1cccc(C2=Nc3ccc(C#Cc4ccccc4)cc3NC(=O)C2)c1` [Example 133, 4-(3-Ethynyl-phenyl)-8-phenylethynyl-1,3-dihydro-benzo[b][1,4]diazepin-2-one]: the melting point was > 250 °C (dec.).

`N#Cc1cccc(C2=Nc3ccc(C#CC4=CCOCC4)cc3NC(=O)C2)c1` [Example 138, 3-[7-(3,6-Dihydro-2H-pyran-4-ylethynyl)-4-oxo-4,5-dihydro-3H-benzo [b][1,4]diazepin-2-yl]-benzonitrile]: the melting point was 238 °C.

On to `CC(C)(C)OC(=O)N1CC=C(C#Cc2ccc3c(c2)NC(=O)CC(c2cccc(C#N)c2)=N3)CC1` [Example 139, 4-[2-(3-Cyano-phenyl)-4-oxo-4,5-dihydro-3H-benzo [b][1,4]diazepin-7-ylethynyl]-3,6-dihydro-2H-pyridine-1-carboxylic acid tert.-butyl ester], for which the melting point came out at 239 °C.

Compound `N#Cc1cccc(C2=Nc3ccc(C#CC4=CCNCC4)cc3NC(=O)C2)c1` [Example 140, 3-[4-Oxo-7-(1,2,3,6-tetrahydro-pyridin-4-ylethynyl)-4,5-dihydro-3H-benzo [b][1,4]diazepin-2-yl]-benzonitrile] gave a melting point of 184 °C.

In turn, `CC(=O)N1CC=C(C#Cc2ccc3c(c2)NC(=O)CC(c2cccc(C#N)c2)=N3)CC1` [Example 141, 3-[7-(1-Acetyl-1,2,3,6-tetrahydro-pyridin-4-ylethynyl)-4-oxo-4,5-dihydro-3H-benzo[b][1,4]diazepin-2-yl]-benzonitrile] came in with a melting point of 203 °C.

On to `CS(=O)(=O)N1CC=C(C#Cc2ccc3c(c2)NC(=O)CC(c2cccc(C#N)c2)=N3)CC1` [Example 142, 3-[7-(1-Methanesulfonyl-1,2,3,6-tetrahydro-pyridin-4-ylethynyl)-4-oxo-4,5-dihydro-3H-benzo[b][1,4]diazepin-2-yl]-benzonitrile], for which the melting point is 235 °C.

`CC(C)(C)C(=O)N1CC=C(C#Cc2ccc3c(c2)NC(=O)CC(c2cccc(C#N)c2)=N3)CC1` [Example 143, 3-{7-[1-(2,2-Dimethyl-propionyl)-1,2,3,6-tetrahydro-pyridin-4-ylethynyl]-4-oxo-4,5-dihydro-3H-benzo [b][1,4]diazepin-2-yl}-benzonitrile] had a melting point of 219 °C.

For the compound `N#Cc1cccc(C2=Nc3ccc(C#CC4=CC(=O)CCC4)cc3NC(=O)C2)c1` [Example 144, 3-[4-Oxo-7-(3-oxo-cyclohex-1-enylethynyl)-4,5-dihydro-3H-benzo [b][1,4]diazepin-2-yl]-benzonitrile], the melting point worked out at 110 °C.

Regarding `N#Cc1cccc(C2=Nc3ccc(C#Cc4ccc(F)cc4)cc3NC(=O)C2)c1` [Example 145, 3-[7-(4-Fluoro-phenylethynyl)-4-oxo-4,5-dihydro-3H-benzo [b][1,4]diazepin-2-yl]-benzonitrile], the melting point fell in the range of 245 to 246 °C.

Take `CN1CCN(C(=O)c2cccc(C3=Nc4ccc(C#Cc5ccccc5)cc4NC(=O)C3)c2)CC1` [Example 147, 4-[3-(4-Methyl-piperazine-1-carbonyl)-phenyl]-8-phenylethynyl-1,3-dihydro-benzo[b][1,4]diazepin-2-one]: the melting point is 168 to 172 °C (dec.).

Take `NC(=O)c1cccc(C2=Nc3ccc(C#Cc4ccccc4)cc3NC(=O)C2)c1` [Example 148, 3-(4-Oxo-7-phenylethynyl-4,5-dihydro-3H-benzo [b][1,4]diazepin-2-yl)-benzamide]: the melting point was > 250 °C (dec.).

As to `NC(=S)c1cccc(C2=Nc3ccc(-c4ccc(F)cc4)cc3NC(=O)C2)c1` [Example 149, 3-[7-(4-Fluoro-phenyl)-4-oxo-4,5-dihydro-3H-benzo [b][1,4]diazepin-2-yl]-thiobenzamide], the melting point was 267 to 270 °C (dec.).

With `NC(=S)c1cccc(C2=Nc3ccc(-c4ccccc4F)cc3NC(=O)C2)c1` [Example 150, 3-[7-(2-Fluoro-phenyl)-4-oxo-4,5-dihydro-3H-benzo[b][1,4]diazepin-2-yl]-thiobenzamide], the melting point is 232 to 234 °C (dec.).

Turning to `Cc1csc(-c2cccc(C3=Nc4ccc(-c5ccc(F)cc5)cc4NC(=O)C3)c2)n1` [Example 152, 8-(4-Fluoro-phenyl)-4-[3-(4-methyl-thiazol-2-yl)-phenyl]-1,3-dihydro-benzo [b][1,4]diazepin-2-one], the melting point was 259 to 261 °C (dec.).

Consider `CCOC(=O)c1csc(-c2cccc(C3=Nc4ccc(-c5ccc(F)cc5)cc4NC(=O)C3)c2)n1` [Example 153, 2-{3-[7-(4-Fluoro-phenyl)-4-oxo-4,5-dihydro-3H-benzo [b][1,4]diazepin-2-yl]-phenyl}-thiazole-4-carboxylic Acid Ethyl Ester], for which the melting point was 236 to 238 °C (dec.).

Turning to `CCOC(=O)c1csc(-c2cccc(C3=Nc4ccc(-c5ccccc5F)cc4NC(=O)C3)c2)n1` [Example 154, 2-{3-[7-(2-Fluoro-phenyl)-4-oxo-4,5-dihydro-3H-benzo [b][1,4]diazepin-2-yl]-phenyl}-thiazole-4-carboxylic Acid Ethyl Ester], the melting point is 172 to 175 °C.

As to `CCOC(=O)c1csc(-c2cc(C3=Nc4ccc(-c5ccc(F)cc5)cc4NC(=O)C3)ccn2)n1` [Example 155, 2-{4-[7-(4-Fluoro-phenyl)-4-oxo-4,5-dihydro-3H-benzo[b][1,4]diazepin-2-yl]-pyridin-2-yl}-thiazole-4-carboxylic Acid Ethyl Ester], the melting point was 238 to 240 °C (dec.).
